Here are results for three compounds from US9198451B2, “Aroma composition to reduce or suppress undesirable bitter and astringent taste impressions of sweeteners” (SYMRISE AG, priority 2008, dated 2015).

Where a name gives a salt, the structure may show the parent alone.

What is called solubility is the dissolved amount per volume that the medium holds.

This data set in a line: Solubility of the salts (saturated solution, filtering, HPLC determination of homoeriodictyol content). Format: physicochemical. The protocol: The solubility of the homoeriodictyol sodium salt and the salts produced in Example 1 and Example 2 is determined by the production of a saturated solution, filtering of this and then HPLC determination of the homoeriodictyol content.

For `COc1cc([C@@H]2CC(=O)c3c(O)cc(O)cc3O2)ccc1O` [Example 1, homoeriodictyol potassium salt], the “solubility compared with pure homoeriodictyol sodium salt” value is on record as “better solubility”. Moreover, the “Solubility in water, containing 1.5 g/l citric acid” value (water containing 1.5 g/l citric acid, saturated solution, filtered, HPLC, potassium salt) worked out at 5100 µg/mL. Where the note is “saturated solution, filtered, HPLC, potassium salt”, the Solubility in water amounted to 7000 µg/mL.
On to `COc1cc([C@@H]2CC(=O)c3c(O)cc(O)cc3O2)ccc1O` [Example 2, Homoeriodictyol Potassium Calcium Salt], for which the “Solubility in water, containing 1.5 g/l citric acid” value (water containing 1.5 g/l citric acid, saturated solution, filtered, HPLC, Potassium Calcium Salt) worked out at 5400 µg/mL. In addition, for the setting “saturated solution, filtered, HPLC, Potassium Calcium Salt”, the Solubility in water worked out at 10000 µg/mL.
Regarding `COc1cc([C@@H]2CC(=O)c3c(O)cc(O)cc3O2)ccc1O` [Homoeriodictyol sodium salt, reference compound], the solubility (water containing 1.5 g/l citric acid, aqueous buffer, thermodynamic from solid, saturated solution, filtered, HPLC) turned out to be 3800 µg/mL. The Solubility in water (saturated solution, filtered, HPLC, sodium salt) amounted to 2800 µg/mL.
